In patent publication US20050070554A1, “Substituted heterocyclic compounds and methods of use” (Amgen Inc., priority 2003, published 2005):

Each compound was assayed against T1, LCK (Homo sapiens, UniProt P06239) (assay: LCK-Homogeneous Time Resolved Fluorescent (HTRF) Kinase Assay). Conditions: not given.
T1 construct: LCK KD GST (225-509); GST
Format: biochemical
Outline: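 LCK phosphorylates biotinylated Gastrin peptide in the presence of ATP for 90 min in 50 mM HEPES pH 7.5, 50 mM NaCl, 20 mM MgCl, 5 mM MnCl, 2 mM DTT, 0.05% BSA. Reaction stopped with EDTA-containing detection reagent, then equilibrated 30 min before HTRF read.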

T1 sequence (P06239 225-509): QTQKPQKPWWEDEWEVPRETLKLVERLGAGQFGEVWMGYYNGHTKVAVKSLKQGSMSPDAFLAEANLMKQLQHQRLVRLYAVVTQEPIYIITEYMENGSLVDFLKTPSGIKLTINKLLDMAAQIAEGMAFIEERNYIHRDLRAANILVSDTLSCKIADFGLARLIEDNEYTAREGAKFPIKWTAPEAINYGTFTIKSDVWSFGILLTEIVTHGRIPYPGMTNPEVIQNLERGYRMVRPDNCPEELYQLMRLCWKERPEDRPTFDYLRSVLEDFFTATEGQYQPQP

IC50, < 1 µM:
COc1cc(Nc2ncc3c(=O)n(-c4c(C)cccc4C)c4nc5ccccc5n4c3n2)ccc1OCCN1CCN(C)CC1 [No. 10, 6-(2,6-dimethylphenyl)-2-((3-(methyloxy)-4-((2-(4-methyl-1-piperazinyl)ethyl)oxy)phenyl)amino)-pyrimido[5′,4′:5,6]pyrimido[1,2-a]benzimidazol-5(6H)-one]

Same assay, conditions: read-out: activity in the LCK-HTRF Kinase Assay

IC50, < 1 µM:
Cc1cccc(C)c1-n1c(=O)c2cnc(Nc3ccc(OCCN4CCCCC4)c(F)c3)nc2n2c3ccccc3nc12 [No. 35, 6-(2,6-dimethylphenyl)-2-((3-fluoro-4-((2-(1-piperidinyl)ethyl)oxy)phenyl)amino)-pyrimido[5′,4′:5,6]pyrimido[1,2-a]benzimidazol-5(6H)-one]
Cc1cccc(C)c1-n1c(=O)c2cnc(Nc3ccc(OCCN4CCN(C(C)C)CC4)c(Cl)c3)nc2n2c3ccccc3nc12 [No. 70, 2-((3-chloro-4-((2-(4-(1-methylethyl)-1-piperazinyl)-ethyl)oxy)phenyl)amino)-6-(2,6-dimethylphenyl)-pyrimido[5′,4′:5,6]pyrimido[1,2-a]benzimidazol-5(6H)-one]
COc1cc(Nc2ncc3c(=O)n(-c4c(C)cccc4C)c4nc5ccccc5n4c3n2)ccc1OCC1CCN(C)CC1 [No. 12, 6-(2,6-dimethylphenyl)-2-((3-(methyloxy)-4-(((1-methyl-4-piperidinyl)methyl)oxy)phenyl)amino)-pyrimido[5′,4′:5,6]pyrimido[1,2-a]benzimidazol-5(6H)-one]
COc1cc(Nc2ncc3c(=O)n(-c4c(C)cccc4C)c4nc5ccccc5n4c3n2)cc(OC)c1OCCN1CCCCC1 [No. 25, 2-((3,5-bis(methyloxy)-4-((2-(1-piperidinyl)ethyl)-oxy)phenyl)amino)-6-(2,6-dimethylphenyl)-pyrimido[5′,4′:5,6]pyrimido[1,2-a]benzimidazol-5(6H)-one]
Cc1cccc(C)c1-n1c(=O)c2cnc(Nc3ccc(N4CCCN(C)CC4)cc3)nc2n2c3ccccc3nc12 [No. 74, 6-(2,6-dimethylphenyl)-2-((4-(4-methyl-1,4-diazepan-1-yl)phenyl)amino)pyrimido[5′,4′:5,6]pyrimido[1,2-a]benzimidazol-5(6H)-one]
Cc1cccc(C)c1-n1c(=O)c2cnc(Nc3ccc(OCCCN4CCN(C(C)C)CC4)c(F)c3)nc2n2c3ccccc3nc12 [No. 72, 6-(2,6-dimethylphenyl)-2-((3-fluoro-4-((3-(4-(1-methylethyl)-1-piperazinyl)propyl)oxy)phenyl)-amino)pyrimido[5′,4′:5,6]pyrimido[1,2-a]-benzimidazol-5(6H)-one]
